Source: patent publication US20180148418A1, “AMIDO-SUBSTITUTED CYCLOHEXANE DERIVATIVES” (Bayer Pharma Aktiengesellschaft, priority 2015, published 2018)

Tests used:
[1] = target: T1, TNKS2 (Homo sapiens, UniProt Q9H2K2); experiment: TNKS2 Assay B (auto-parsylation, [3H]-NAD+ SPA); type: biochemical; settings: 6 nM TNKS2, auto-parsylation, over night at room temperature
T1 construct: purchased BPS Bioscience, San Diego, USA 80572 (TNKS2 Histone Ribosylation Assay Kit)
T1 sequence (Q9H2K2 1-1166): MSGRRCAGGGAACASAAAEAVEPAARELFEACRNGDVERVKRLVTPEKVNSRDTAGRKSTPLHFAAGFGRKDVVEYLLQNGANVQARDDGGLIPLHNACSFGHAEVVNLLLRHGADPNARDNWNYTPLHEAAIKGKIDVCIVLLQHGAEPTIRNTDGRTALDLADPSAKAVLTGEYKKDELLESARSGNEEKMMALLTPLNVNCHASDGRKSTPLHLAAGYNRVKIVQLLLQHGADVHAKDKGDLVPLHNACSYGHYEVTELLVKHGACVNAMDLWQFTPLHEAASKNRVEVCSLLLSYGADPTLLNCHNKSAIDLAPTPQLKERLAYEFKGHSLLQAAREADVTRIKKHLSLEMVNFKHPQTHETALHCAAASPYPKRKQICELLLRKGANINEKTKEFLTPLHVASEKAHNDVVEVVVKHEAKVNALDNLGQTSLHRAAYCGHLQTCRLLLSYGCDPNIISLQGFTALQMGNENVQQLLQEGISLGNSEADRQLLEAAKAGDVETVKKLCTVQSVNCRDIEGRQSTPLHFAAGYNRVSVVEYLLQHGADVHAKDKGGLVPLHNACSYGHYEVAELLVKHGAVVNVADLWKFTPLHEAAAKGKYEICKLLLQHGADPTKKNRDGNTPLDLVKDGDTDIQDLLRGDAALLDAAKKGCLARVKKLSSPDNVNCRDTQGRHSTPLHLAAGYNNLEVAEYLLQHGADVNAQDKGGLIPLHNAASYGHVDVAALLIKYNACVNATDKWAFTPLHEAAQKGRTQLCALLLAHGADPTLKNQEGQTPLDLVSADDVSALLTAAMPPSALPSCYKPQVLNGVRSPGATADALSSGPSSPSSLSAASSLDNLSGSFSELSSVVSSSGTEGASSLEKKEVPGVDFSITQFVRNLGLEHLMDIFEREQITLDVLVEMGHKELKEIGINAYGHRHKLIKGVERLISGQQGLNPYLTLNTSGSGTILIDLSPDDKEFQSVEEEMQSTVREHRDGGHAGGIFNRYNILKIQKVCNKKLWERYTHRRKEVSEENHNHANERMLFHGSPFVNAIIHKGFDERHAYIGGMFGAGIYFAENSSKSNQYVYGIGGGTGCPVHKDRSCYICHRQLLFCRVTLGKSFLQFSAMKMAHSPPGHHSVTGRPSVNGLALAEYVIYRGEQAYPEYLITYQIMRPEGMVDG

[2] = test system: wildtype Wnt signaling cascade; experiment: HEK293 TOP assay (Super TopFlash luciferase reporter, Wnt-3a stimulated); type: cell-based; settings: Homo sapiens, HEK293, 16 h, HEK293 TOP reporter cells, Wnt3a at EC50, 16 hours
How it was run: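 Compound series (50 μM down to 15 nM, 3.16-fold) diluted from DMSO 50-fold into CAFTY buffer, pH 7.4, 2 mM Ca^2+, 0.01% BSA, applied to Wnt-3a-stimulated HEK293 TopFlash and FOP reporter lines in parallel. Cells seeded 10000/well 24 h before; luciferase signal measured.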

SMILES	IC50 [1]	IC50 [2]
CNC(=O)c1[nH]cnc1C(=O)N[C@@H]1CC[C@@H](C(=O)Nc2ccc(F)cc2Cl)C[C@@H]1F (racemic) [Example 31, N^4-{(1α,2α,4β)-4-[(2-chloro-4-fluorophenyl)carbamoyl]-2-fluorocyclohexyl}-N^5-methyl-1H-imidazole-4,5-dicarboxamide]	120 nM	250 nM
CNC(=O)c1[nH]cnc1C(=O)N[C@@H]1CC[C@@H](C(=O)Nc2ccc(F)cc2Cl)C[C@H]1OC (racemic) [Example 35, N^4-{(1α,2β,4β)-4-[(2-chloro-4-fluorophenyl)carbamoyl]-2-methoxycyclohexyl}-N^5-methyl-1H-imidazole-4,5-dicarboxamide]	> 10000 nM	17000 nM
CNC(=O)c1[nH]cnc1C(=O)N[C@H]1CC[C@H](C(=O)Nc2ccc(F)cc2Cl)CC1(F)F (single isomer, unassigned) [Example 33, N^4-{(trans)-4-[(2-chloro-4-fluorophenyl)carbamoyl]-2,2-difluorocyclohexyl}-N^5-methyl-1H-imidazole-4,5-dicarboxamide]	380 nM	700 nM
CNC(=O)c1[nH]cnc1C(=O)NC1CCC(C(=O)Nc2ccc(F)cc2Cl)CC1C (single isomer, unassigned) [Example 41, N^4-{4-[(2-chloro-4-fluorophenyl)carbamoyl]-2-methylcyclohexyl}-N^5-methyl-1H-imidazole-4,5-dicarboxamide]	> 10000 nM	21000 nM
O=C(NC1CCC(F)(C(=O)Nc2ccc(F)cc2Cl)CC1)c1cnn2cccnc12 (single isomer, unassigned) [Example 365, N-{4-[(2-chloro-4-fluorophenyl)carbamoyl]-4-fluorocyclohexyl}pyrazolo[1,5-a]pyrimidine-3-carboxamide (single isomer)]	> 10000 nM	21000 nM
CNC(=O)c1[nH]cnc1C(=O)NC1CCC(F)(C(=O)Nc2ccc(F)cc2Cl)CC1 (single isomer, unassigned) [Example 366, N^4-{4-[(2-chloro-4-fluorophenyl)carbamoyl]-4-fluorocyclohexyl}-N^5-methyl-1H-imidazole-4,5-dicarboxamide (single isomer)]	> 10000 nM	25000 nM
O=C(NCC1CCCO1)c1nc[nH]c1C(=O)N[C@H]1CC[C@H](C(=O)Nc2c(F)cc(F)cc2Cl)CC1 (stereo in doubt) [Example 71, N^5-{trans-4-[(2-chloro-4,6-difluorophenyl)carbamoyl]cyclohexyl}-N^4-[(2R)-tetrahydrofuran-2-ylmethyl]-1H-imidazole-4,5-dicarboxamide]	66 nM	100 nM

Continued, values first:

IC50 [1]	IC50 [2]	SMILES
280 nM	270 nM	CNC(=O)c1[nH]cnc1C(=O)N[C@@H]1CC[C@@H](C(=O)Nc2ccc(F)cc2Cl)CC1(F)F (stereo in doubt) [Example 32, N^4-{(trans)-4-[(2-chloro-4-fluorophenyl)carbamoyl]-2,2-difluorocyclohexyl}-N^5-methyl-1H-imidazole-4,5-dicarboxamide]
72 nM	52 nM	CNC(=O)c1nc[nH]c1C(=O)N[C@H]1CC[C@H](C(=O)Nc2ccc(F)cc2Cl)CC1 [Example 1, N^5-{trans-4-[(2-chloro-4-fluorophenyl)carbamoyl]cyclohexyl}-N^4-methyl-1H-imidazole-4,5-dicarboxamide]
5.3 nM	24 nM	O=C(N[C@H]1CC[C@H](C(=O)Nc2ccc(F)cc2Cl)CC1)c1[nH]cnc1C(=O)N1CC2(CCS2(=O)=O)C1 [Example 22, N-{trans-4-[(2-chloro-4-fluorophenyl)carbamoyl]cyclohexyl}-4-[(1,1-dioxido-1-thia-6-azaspiro[3.3]hept-6-yl)carbonyl]-1H-imidazole-5-carboxamide]
25 nM	110 nM	O=C(N[C@H]1CC[C@H](C(=O)Nc2ccc(F)cc2Cl)CC1)c1[nH]cnc1C(=O)N1CCC1 [Example 23, 4-(azetidin-1-ylcarbonyl)-N-{trans-4-[(2-chloro-4-fluorophenyl)carbamoyl]cyclohexyl}-1H-imidazole-5-carboxamide]
